Experimental findings from ChEMBL document CHEMBL5223144, “Second generation Spautin-1 analogues targeting EGFR-mutant non-small cell lung cancer cells” (Bioorg Med Chem Lett, 2023) are described below.

Calls of active or inactive are those of the source. No cut-off for these calls is given here. Where only a bound is given, the exact number is not on record here.

The test system of data set [1] is PC-9. In words: Cytotoxicity against human PC-9 cells harboring EGFR mutant assessed as inhibition of cell growth incubated for 72 hrs by ATP-based luminescence CellTiter-Glo assay. The data set is classed as functional. As to conditions: PC-9, 72 h. In general terms: ATP-based viability assays read luminescence as a measure of living cells.
Data set [2] relates to PC-9. In words: Cytotoxicity against human PC-9 cells harboring EGFR mutant assessed as inhibition of cell growth. The format is functional, cell-based.
In data set [3] the test system is PC-9. In words: Additive cytotoxicity against human PC-9 cells assessed as reduction in cell viability at 4 nM incubated in presence of afatinib. The data set is classed as functional, cell-based.
The subject of data set [4] is BEAS-2B. The experiment in a line: Cytotoxicity against human BEAS-2B cells assessed as reduction in cell viability at 4 nM. The format is toxicity, cell-based. As to conditions: 0.004 µM.
Data set [5] concerns BEAS-2B. The experiment in a line: Cytotoxicity against human BEAS-2B cells assessed as reduction in cell viability at 4 nM incubated in presence of afatinib. The format is toxicity, cell-based. As to conditions: 0.004 µM.
Data set [6] concerns the target Epidermal growth factor receptor (Homo sapiens) (UniProt P00533). In words: Inhibition of EGFR (unknown origin) assessed as residual activity relative to control.
Data set [7] has as its target Tyrosine-protein kinase Fer (Homo sapiens) (UniProt P16591). In words: Inhibition of FER (unknown origin) at 10 nM.
For data set [8], the target named is ALK tyrosine kinase receptor (Homo sapiens) (UniProt Q9UM73). The experiment in a line: Inhibition of ALK (unknown origin) at 10 nM.
Data set [9] addresses Serine/threonine-protein kinase pim-1 (Homo sapiens) (UniProt P11309). In words: Inhibition of Moloney murine leukemia virus Proviral integration site 1 at 10 nM.
Data set [10] has as its system PC-9. In words: Additive cytotoxicity against human PC-9 cells assessed as reduction in cell viability at 34 nM incubated in presence of afatinib. The format is functional, cell-based.
The test system of data set [11] is BEAS-2B. The experiment in a line: Cytotoxicity against human BEAS-2B cells assessed as reduction in cell viability at 34 nM. The format is toxicity, cell-based. The conditions noted are these: 0.034 µM.
Data set [12] deals with BEAS-2B. The experiment in a line: Cytotoxicity against human BEAS-2B cells assessed as reduction in cell viability at 34 nM incubated in presence of afatinib. The format is toxicity, cell-based. The conditions noted are these: 0.034 µM.
Data set [13] addresses Tyrosine-protein kinase Fer (Homo sapiens) (UniProt P16591). In words: Inhibition of FER (unknown origin) at 50 nM.
Data set [14] concerns the target ALK tyrosine kinase receptor (Homo sapiens) (UniProt Q9UM73). In words: Inhibition of ALK (unknown origin) at 50 nM.
Data set [15] has as its target Serine/threonine-protein kinase pim-1 (Homo sapiens) (UniProt P11309). In words: Inhibition of Moloney murine leukemia virus Proviral integration site 1 at 50 nM.

Sequence of Tyrosine-protein kinase Fer (Homo sapiens) (P16591 whole entry, looked up): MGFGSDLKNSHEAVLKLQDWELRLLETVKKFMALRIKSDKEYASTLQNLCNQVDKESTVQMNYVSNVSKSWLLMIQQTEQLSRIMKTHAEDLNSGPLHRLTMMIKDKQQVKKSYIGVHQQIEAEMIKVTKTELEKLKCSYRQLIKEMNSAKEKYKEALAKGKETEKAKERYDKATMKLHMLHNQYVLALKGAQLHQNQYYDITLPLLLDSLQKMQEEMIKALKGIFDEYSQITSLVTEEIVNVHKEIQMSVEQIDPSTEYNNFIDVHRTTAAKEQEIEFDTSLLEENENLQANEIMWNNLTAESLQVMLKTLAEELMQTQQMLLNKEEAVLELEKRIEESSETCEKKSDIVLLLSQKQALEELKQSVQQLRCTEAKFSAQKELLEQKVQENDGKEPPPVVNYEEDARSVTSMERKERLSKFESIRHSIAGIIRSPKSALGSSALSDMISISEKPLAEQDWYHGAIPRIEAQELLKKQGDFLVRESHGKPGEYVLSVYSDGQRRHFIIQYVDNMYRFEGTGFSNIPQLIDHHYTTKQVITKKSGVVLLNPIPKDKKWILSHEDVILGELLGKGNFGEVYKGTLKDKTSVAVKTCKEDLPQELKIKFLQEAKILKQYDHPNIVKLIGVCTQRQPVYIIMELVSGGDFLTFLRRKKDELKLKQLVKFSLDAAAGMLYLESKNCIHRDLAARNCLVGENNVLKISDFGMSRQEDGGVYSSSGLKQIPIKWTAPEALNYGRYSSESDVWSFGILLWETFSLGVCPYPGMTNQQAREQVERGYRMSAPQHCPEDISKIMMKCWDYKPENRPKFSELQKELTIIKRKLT
Sequence of Epidermal growth factor receptor (Homo sapiens) (P00533 whole entry): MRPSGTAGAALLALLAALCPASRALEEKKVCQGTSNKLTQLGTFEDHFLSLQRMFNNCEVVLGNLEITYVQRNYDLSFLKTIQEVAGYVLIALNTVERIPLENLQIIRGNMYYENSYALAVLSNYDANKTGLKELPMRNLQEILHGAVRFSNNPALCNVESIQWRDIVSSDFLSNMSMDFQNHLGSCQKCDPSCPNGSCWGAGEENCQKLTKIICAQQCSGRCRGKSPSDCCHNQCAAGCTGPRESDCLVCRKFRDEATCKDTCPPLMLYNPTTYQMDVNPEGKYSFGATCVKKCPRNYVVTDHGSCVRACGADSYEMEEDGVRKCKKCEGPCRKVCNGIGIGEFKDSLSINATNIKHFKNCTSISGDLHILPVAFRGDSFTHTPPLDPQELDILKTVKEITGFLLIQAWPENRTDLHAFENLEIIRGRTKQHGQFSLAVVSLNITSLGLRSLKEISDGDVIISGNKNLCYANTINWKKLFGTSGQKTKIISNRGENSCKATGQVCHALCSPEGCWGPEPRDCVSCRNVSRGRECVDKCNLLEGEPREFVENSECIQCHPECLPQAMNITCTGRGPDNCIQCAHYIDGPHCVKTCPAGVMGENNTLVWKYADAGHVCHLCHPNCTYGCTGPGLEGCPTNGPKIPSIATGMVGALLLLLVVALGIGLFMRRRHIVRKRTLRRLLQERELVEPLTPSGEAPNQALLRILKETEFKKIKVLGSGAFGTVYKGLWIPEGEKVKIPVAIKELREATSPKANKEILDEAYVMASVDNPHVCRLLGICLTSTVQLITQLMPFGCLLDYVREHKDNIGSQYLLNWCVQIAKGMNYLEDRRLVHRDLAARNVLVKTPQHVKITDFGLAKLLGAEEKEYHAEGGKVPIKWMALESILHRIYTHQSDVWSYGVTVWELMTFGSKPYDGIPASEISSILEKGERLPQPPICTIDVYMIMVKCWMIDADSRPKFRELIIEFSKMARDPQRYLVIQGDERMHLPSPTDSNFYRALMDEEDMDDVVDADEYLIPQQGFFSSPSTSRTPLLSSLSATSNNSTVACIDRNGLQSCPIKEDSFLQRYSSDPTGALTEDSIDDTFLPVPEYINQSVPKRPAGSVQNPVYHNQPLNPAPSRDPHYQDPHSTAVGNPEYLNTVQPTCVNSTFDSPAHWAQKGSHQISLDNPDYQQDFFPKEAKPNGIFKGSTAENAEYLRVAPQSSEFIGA
Sequence of ALK tyrosine kinase receptor (Homo sapiens) (Q9UM73 19-1620 limits assumed): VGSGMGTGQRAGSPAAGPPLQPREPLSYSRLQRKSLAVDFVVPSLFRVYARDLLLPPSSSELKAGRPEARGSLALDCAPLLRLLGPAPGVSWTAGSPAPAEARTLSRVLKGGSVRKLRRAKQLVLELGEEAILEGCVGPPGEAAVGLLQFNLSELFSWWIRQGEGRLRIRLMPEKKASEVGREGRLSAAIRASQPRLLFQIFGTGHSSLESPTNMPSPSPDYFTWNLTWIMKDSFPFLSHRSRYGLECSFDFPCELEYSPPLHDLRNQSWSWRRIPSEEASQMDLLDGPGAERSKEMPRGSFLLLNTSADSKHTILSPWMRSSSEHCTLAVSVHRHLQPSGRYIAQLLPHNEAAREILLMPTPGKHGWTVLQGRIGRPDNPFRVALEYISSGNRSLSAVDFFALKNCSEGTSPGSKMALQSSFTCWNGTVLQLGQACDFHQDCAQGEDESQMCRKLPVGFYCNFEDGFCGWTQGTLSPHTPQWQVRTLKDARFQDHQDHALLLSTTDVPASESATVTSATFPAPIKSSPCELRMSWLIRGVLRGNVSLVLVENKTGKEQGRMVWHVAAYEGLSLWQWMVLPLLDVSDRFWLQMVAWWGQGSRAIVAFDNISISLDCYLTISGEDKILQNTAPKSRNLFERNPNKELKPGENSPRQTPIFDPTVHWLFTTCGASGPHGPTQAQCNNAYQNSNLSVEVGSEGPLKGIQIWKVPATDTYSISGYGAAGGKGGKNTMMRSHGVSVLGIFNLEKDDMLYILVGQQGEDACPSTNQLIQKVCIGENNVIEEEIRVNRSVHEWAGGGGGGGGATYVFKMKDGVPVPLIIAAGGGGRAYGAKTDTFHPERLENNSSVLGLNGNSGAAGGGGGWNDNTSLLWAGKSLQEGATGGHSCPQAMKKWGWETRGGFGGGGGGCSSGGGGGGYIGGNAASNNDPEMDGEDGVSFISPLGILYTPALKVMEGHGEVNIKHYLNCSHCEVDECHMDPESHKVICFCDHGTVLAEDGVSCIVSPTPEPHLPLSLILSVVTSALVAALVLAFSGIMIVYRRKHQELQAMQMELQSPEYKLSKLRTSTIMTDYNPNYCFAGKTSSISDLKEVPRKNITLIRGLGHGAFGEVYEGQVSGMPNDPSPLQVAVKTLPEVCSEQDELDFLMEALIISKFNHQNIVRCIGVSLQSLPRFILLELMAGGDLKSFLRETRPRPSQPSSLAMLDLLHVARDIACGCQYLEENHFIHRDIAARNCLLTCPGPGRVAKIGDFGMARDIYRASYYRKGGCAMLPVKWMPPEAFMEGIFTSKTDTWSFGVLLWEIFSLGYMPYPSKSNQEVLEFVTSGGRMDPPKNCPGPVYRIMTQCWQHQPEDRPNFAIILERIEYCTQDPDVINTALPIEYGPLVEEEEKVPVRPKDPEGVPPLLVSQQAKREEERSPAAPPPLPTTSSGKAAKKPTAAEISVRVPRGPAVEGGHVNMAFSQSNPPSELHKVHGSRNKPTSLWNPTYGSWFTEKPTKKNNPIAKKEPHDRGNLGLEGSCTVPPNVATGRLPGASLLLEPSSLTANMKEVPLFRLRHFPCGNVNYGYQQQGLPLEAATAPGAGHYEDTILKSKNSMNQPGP

For the molecule `Fc1ccc2ncnc(NCCc3ccc(Br)cc3)c2c1`, the IC50 (in general, the point on the concentration scale where inhibition reaches its midpoint) in the data set on PC-9 [1] is 207 nM.
Take `Fc1ccc2ncnc(NCCc3ccc(-c4ccc(C(F)(F)F)cc4)cc3)c2c1`: the IC50 with PC-9 [2] came out at 131 nM.
The same measure, in the same setting: with `Fc1cccc(-c2ccc(CCNc3ncnc4ccc(F)cc34)cc2)c1` the figure was 618 nM.
The same measure, in the same setting: with `Fc1ccc2ncnc(NCCc3ccc(-c4cccnc4)cc3)c2c1` the figure was 1040 nM; with `Fc1ccc2ncnc(NCCc3ccc(-c4ccoc4)cc3)c2c1`, 288 nM.
As to `Fc1ccc2ncnc(NCCc3ccc(-c4ccco4)cc3)c2c1`, in the data set with PC-9 [2], the IC50 is 636 nM.
Still for that read-out and setting: with `CC(C)(C)Oc1ccc(-c2ccc(CCNc3ncnc4ccc(F)cc34)cc2)cc1` the figure was 1700 nM.
With `Fc1ccc2ncnc(NC3CCc4cc(Br)ccc4C3)c2c1` (centres undefined), in the data set on PC-9 [2], the IC50 is 718 nM.
The same measure, in the same setting: with `Fc1ccc2ncnc(NCCc3ccc(-c4ccc5oc6ccccc6c5c4)cc3)c2c1` the figure was 79 nM.
As to `COc1ccc(Oc2ccc(CCNc3ncnc4ccc(F)cc34)cc2)cc1`, the half-inhibitory concentration (IC50) in the data set on PC-9 [2] stood at 7 nM.
`Fc1ccc2ncnc(NCCc3ccc(OCc4ccccc4)cc3)c2c1`: in the data set on PC-9 [2], the IC50 amounted to 30 nM.
On the same count and under the same terms, next, `COc1cccc(-c2ccc(CCNc3ncnc4ccc(F)cc34)cc2)c1`: 67 nM.
The same measure, in the same setting: with `Fc1ccc2ncnc(NCCc3ccc(-c4ccccc4)cc3)c2c1` the figure was 77 nM; with `Fc1ccc2ncnc(NCCc3ccc(-c4cccc(F)c4F)cc3)c2c1`, 76 nM.
For `Fc1ccc(Oc2ccc(CCNc3ncnc4ccc(F)cc34)cc2)cc1`, in the data set with PC-9 [2], the IC50 worked out at 4 nM. Also, the outcome in the data set with PC-9 [3] was Active. The Activity entry in the data set on BEAS-2B [4] was “Non-Toxic”; in the data set with BEAS-2B [5] it was “Non-Toxic”; in data set [6], more than 90%. The inhibition entry in data set [7], in data set [8] and in [9] was “Active” throughout.
With `Fc1ccc2ncnc(NCCc3ccc(Oc4ccccc4)cc3)c2c1`, the concentration for half-maximal inhibition (IC50) in the data set on PC-9 [2] was 14 nM.
The same measure, in the same setting: next, `Fc1ccc2ncnc(NCCc3ccccc3-c3ccccc3)c2c1`: more than 5000 nM.
`Cc1ccc(-c2ccc(CCNc3ncnc4ccc(F)cc34)cc2)cc1`: the IC50 in the data set with PC-9 [2] turned out to be 49 nM.
For the molecule `Fc1ccc2ncnc(NCCc3ccc(-c4ccc5ccccc5c4)cc3)c2c1`, in the data set with PC-9 [2], the IC50 was determined as 101 nM.
On the same count and under the same terms, with `CC(C)(C)c1ccc(-c2ccc(CCNc3ncnc4ccc(F)cc34)cc2)cc1` the figure was 363 nM.
`Fc1ccc2ncnc(NCCc3ccc(-c4ccccc4F)cc3)c2c1`: the IC50 in the data set with PC-9 [2] was 66 nM.
`COc1ccc(-c2ccc(CCNc3ncnc4ccc(F)cc34)cc2)cc1`: in the data set on PC-9 [2], the IC50 came to 69 nM.
On the same count and under the same terms, with `Fc1ccc2ncnc(NCCc3ccc(I)cc3)c2c1` the figure was 261 nM.
As to `Fc1ccc(CNc2ncnc3ccc(F)cc23)cc1`, the IC50 with PC-9 [1] is more than 5000 nM.
Turning to `Fc1ccc2ncnc(NCCc3ccc(-c4ccncc4)cc3)c2c1`, the IC50 in the data set on PC-9 [2] is 408 nM.
In the case of `Fc1ccc2ncnc(Nc3ccc4cc(Br)ccc4c3)c2c1`, the 50% inhibitory concentration (IC50) with PC-9 [2] was more than 5000 nM.
On the same count and under the same terms, next, `COc1ccccc1-c1ccc(CCNc2ncnc3ccc(F)cc23)cc1`: 105 nM.
Still for that read-out and setting: with `Fc1ccc2ncnc(NCCc3ccc(-c4ccc(Oc5ccccc5)cc4)cc3)c2c1` the figure was 280 nM.
As for `Fc1ccc2ncnc(NCCc3cccc(-c4ccccc4)c3)c2c1`, in the data set on PC-9 [2], the IC50 came out at 668 nM.
The same measure, in the same setting: next, `Fc1ccc2ncnc(NCCc3ccc(-c4ccc5c(c4)OCCO5)cc3)c2c1`: 69 nM; `Fc1ccc2ncnc(NCCc3ccc(-c4ccc(Cl)cc4)cc3)c2c1`: 44 nM; `Fc1ccc(-c2ccc(CCNc3ncnc4ccc(F)cc34)cc2)cc1`: 160 nM.
As for `Fc1ccc2ncnc(NCCc3ccc4ccccc4c3)c2c1`, the IC50 with PC-9 [2] stood at 64 nM.
For the molecule `Fc1ccc2ncnc(NCCc3ccc(-c4cccc5ccccc45)cc3)c2c1`, in the data set on PC-9 [2], the IC50 is 291 nM.
On to `Fc1ccc2ncnc(NCCc3ccc(-c4ccc(F)c(F)c4)cc3)c2c1`, for which the IC50 in the data set on PC-9 [2] is 138 nM.
For `Fc1ccc2ncnc(NCCc3cccc(Br)c3)c2c1`, the half-inhibitory concentration (IC50) with PC-9 [2] is 685 nM.
`Fc1ccc(-c2ccc(CCNc3ncnc4ccc(F)cc34)cc2)c(F)c1`: in the data set on PC-9 [2], the IC50 came to 34 nM. Further, in the data set on PC-9 [10], the outcome was Active. The Activity result was “Non-Toxic” with BEAS-2B [11], “Non-Toxic” in the data set with BEAS-2B [12] and more than 90% in [6]. Further, the inhibition result in data set [13], in [14] and in data set [15] was “Active” throughout.
For the molecule `CN(C)C/C=C/C(=O)Nc1cc2c(Nc3ccc(F)c(Cl)c3)ncnc2cc1O[C@H]1CCOC1` [AFATINIB], the 50% inhibitory concentration (IC50) in the data set with PC-9 [2] was found to be 5 nM.
Take `Fc1ccc2ncnc(NCCc3ccccc3Br)c2c1`: the IC50 with PC-9 [2] turned out to be 892 nM.
The same measure, in the same setting: with `CC(C)(C)c1ccc(CCNc2ncnc3ccc(F)cc23)cc1` the figure was 45 nM.
